# Source: PubChem BioAssay AID1996
# Settings: buffer; pH 7.4; 200.0 µM
row,Compound,solubility kinetic
1,CCc1cccc(NC(=O)CCCCCC2NC(=O)NC2C)c1 (stereo not given),> 47.6 µg/mL
2,O=C(O)/C=C/C(=O)NC1CC1,> 23.3 µg/mL
3,COc1cccc(NC(=O)C(Cc2ccccc2)n2cccc2)c1 (stereo not given),27.2 µg/mL
4,O=C(CSc1nc2ccccc2[nH]1)NC1CCCC1,38.7 µg/mL
5,Cc1ccc(OCC(=O)NCCCNC(=O)c2ccccn2)cc1,> 49.1 µg/mL
6,Cc1ccc(-c2nc(C(F)(F)F)cc(=O)[nH]2)cc1,18.4 µg/mL
7,CCOC(=O)c1sc2nc(C)nc(NCc3ccccc3)c2c1C,0.3 µg/mL
8,O=C(/C=C/N1CCN(Cc2ccccc2)CC1)C(F)(F)F,> 44.7 µg/mL
9,O=c1oc2ccc([N+](=O)[O-])cc2c(N2CCOCC2)c1[N+](=O)[O-],> 48.2 µg/mL
10,O=C1c2ccccc2C(O)N1c1ccccc1 (stereo not given),> 33.8 µg/mL
11,Cc1[nH]c2ccccc2c1C(=O)COC(=O)C1CCC1,24.1 µg/mL
12,COc1ccc(CNC(=O)C2CC(C)=C(C)CC2C(=O)O)cc1OC (stereo not given),> 52.1 µg/mL
13,CN(C)CCNc1cnn(-c2ccccc2)c(=O)c1Cl,> 43.9 µg/mL
14,COc1ccc(CN2C(=O)C(C)Oc3ccccc32)cc1 (stereo not given),23.4 µg/mL
15,O=C(COC(=O)c1ccc(S(=O)(=O)NCc2ccco2)cc1)NCc1ccccc1,7.4 µg/mL
16,CCCOc1ccc(CN(C)c2ncnc(N)n2)cc1,13.5 µg/mL
17,CN1CCN(C(=O)CSc2ccc(Cl)cc2)CC1,> 42.7 µg/mL
18,CCOC(=O)c1c(N)sc(N)c1C(=O)OCC,29.9 µg/mL
19,S=c1nc(Cc2ccccc2)[nH]c2ccccc12,2.4 µg/mL
20,CC(=O)N(CCc1cccc(C)c1)Cc1cc2cc(C)ccc2[nH]c1=O,1.1 µg/mL

row,Compound,solubility kinetic
1,Cc1cccc(C)c1OCc1cc(C(=O)NC2CCC(O)CC2)no1 (stereo not given),19.4 µg/mL
2,O=C(NC(=O)c1ccc(F)cc1F)Nc1ccc(Cl)cc1,2.8 µg/mL
3,CN(C)C(=O)COc1ccc2c(-c3ccccc3)cc(=O)oc2c1,12.6 µg/mL
4,CC(=O)Nc1cc[n+](C(C)C(=O)c2ccccc2)cc1.[Cl-] (stereo not given),34 µg/mL
5,O=C(CSc1nncc2ccccc12)Nc1ccccc1,> 44.3 µg/mL
6,O=C(O)c1ccccc1NC(=O)c1ccccc1-c1ccccc1C(=O)O,> 54.2 µg/mL
7,O=C(CNC(=O)c1ccc(Br)cc1)c1ccccc1,1.3 µg/mL
8,COc1cc2c(cc1Cl)C(=O)C(F)(c1ccccc1)C(=O)N2 (stereo not given),0.8 µg/mL
9,COc1cc(C(=O)O)cc(NC(=O)c2ccco2)c1OC,> 43.7 µg/mL
10,COc1ccccc1C(=O)Nc1cccc(C(=O)c2ccccc2)c1,3.5 µg/mL
11,Cc1ccc(Cl)cc1NC(=O)CCCN1C(=O)c2cccnc2C1=O,> 53.7 µg/mL
12,CN(C)c1ccc(/C=C/C(=O)c2ccc(O)cc2)cc1[N+](=O)[O-],1.2 µg/mL
13,O=C(Nc1cccc(Cl)c1N1CCOCC1)c1cccs1,1.6 µg/mL
14,CC(C)c1ccccc1NC(=S)NCc1ccncc1,41.1 µg/mL
15,Fc1cccc(NC(=S)NC2CCCCCCC2)c1,2.9 µg/mL
16,O=C(CCNc1ccccc1)c1cccc([N+](=O)[O-])c1,32.7 µg/mL
17,Cc1ccc(NC(=O)c2nsc(Cl)c2Cl)cc1,< 0.3 µg/mL
18,N#C/C(=C\c1ccccc1OCC(=O)O)c1nc2ccccc2[nH]1,> 47.9 µg/mL
19,O=C(Cn1ccc([N+](=O)[O-])n1)NCCc1c[nH]c2ccccc12,> 47 µg/mL
20,NS(=O)(=O)c1ccc(CCN2C(=O)CCC2=O)cc1,> 42.3 µg/mL

row,Compound,solubility kinetic
1,Cc1ccc(Sc2cc(C)nc(-c3ccccn3)n2)cc1,36.8 µg/mL
2,O=C(CCNS(=O)(=O)c1ccccc1)N1CCCC1,> 42.4 µg/mL
3,Cc1onc(-c2ccccc2Cl)c1C(=O)N1CCN(C)CC1,> 48 µg/mL
4,O=C(COC(=O)CCc1ccc(S(=O)(=O)N2CCOCC2)cc1)Nc1ccccc1OC(F)F,49.5 µg/mL
5,O=C(COC(=O)c1cc(=O)c2ccccc2o1)Nc1ccccc1F,> 51.2 µg/mL
6,NC(=O)C1CCN(C(=O)/C=C/c2cc(Br)ccc2F)CC1,47.7 µg/mL
7,CNc1nc2c(c(=O)[nH]c(=O)n2C)n1CCCc1ccccc1,> 47 µg/mL
8,S=C1NCN(C2CCCCC2)CN1c1ccccc1,> 41.3 µg/mL
9,Cc1ccc2c(c1)C1(C)C(C(C)(C)N2C=O)C1(Cl)Cl (stereo not given),39.3 µg/mL
10,CCOc1nc(-c2ccccc2)ncc1Oc1ccccc1,< 0.3 µg/mL
11,CCOC(=O)c1sc(NC(=O)c2ccccc2OCC)nc1C,< 0.4 µg/mL
12,COc1ccc(C2=NOC(COc3ccc([N+](=O)[O-])cc3)C2)cc1 (stereo not given),< 0.4 µg/mL
13,CC1=C([N+](=O)[O-])C(c2ccc(Cl)cc2)NC(=O)N1C (stereo not given),30.4 µg/mL
14,S=C(NCc1cccnc1)Nc1cc(Cl)cc(Cl)c1,39.6 µg/mL
15,CN1CCN(CC#CCC2(O)c3ccccc3-c3ccccc32)CC1,42.1 µg/mL
16,c1cncc(-c2nc(N3CCOCC3)c3c4c(sc3n2)CCC4)c1,1.1 µg/mL
17,COc1ccc(NC(=O)Nc2ccc3c(c2)OCO3)c(C)c1,1.2 µg/mL
18,COc1ccc(C(O)C(C)NC(C)C(O)c2ccc(OC)cc2)cc1 (stereo not given),43.3 µg/mL
19,O=C(CCNc1ccc(Cc2ccncc2)cc1)c1ccc([N+](=O)[O-])cc1,11.6 µg/mL
20,COc1ccc(OCCNC(=O)c2ccccc2Cl)cc1,> 45.9 µg/mL
